The results in this text go back to patent US20100074897A1, “Methods and Compositions related to HIF-1 alpha” (University of Utah Research Foundation, priority 2006, published 2010).

Data set [1] deals with Sp1. Kind of data set: anti-Sp1 immunoprecipitation of in vitro translated products. Type of data set: binding, rabbit. The note with it: produced in wheat germ extract (modification-deficient). How it is done: (§1) Previously, it was shown that Myc displacement is mediated by the N-terminal HIF-1α (1-329), which competes with Myc for Sp1 binding in the MSH2 promoter (Koshiji et al, 2005). […] […] […] Of note, removal of part of the PAS-B from the C terminus (codon 299-329) destroyed Sp1 binding.
(§2) Immunoprecipitations and Western blot was performed essentially as described previously (Huang et al., 1998; Koshiji et al., 2005). In vitro translation and immunoprecipitations are described as before (Gu et al., 2001; Koshiji et al., 2005). […]

In data set [2] the target is T1, Sp1 (Oryctolagus cuniculus, UniProt G1SL61).
T1 construct: from tissue; host or cells: rabbit reticulocyte lysate (in vitro translation system)
T1 sequence (G1SL61 1-788): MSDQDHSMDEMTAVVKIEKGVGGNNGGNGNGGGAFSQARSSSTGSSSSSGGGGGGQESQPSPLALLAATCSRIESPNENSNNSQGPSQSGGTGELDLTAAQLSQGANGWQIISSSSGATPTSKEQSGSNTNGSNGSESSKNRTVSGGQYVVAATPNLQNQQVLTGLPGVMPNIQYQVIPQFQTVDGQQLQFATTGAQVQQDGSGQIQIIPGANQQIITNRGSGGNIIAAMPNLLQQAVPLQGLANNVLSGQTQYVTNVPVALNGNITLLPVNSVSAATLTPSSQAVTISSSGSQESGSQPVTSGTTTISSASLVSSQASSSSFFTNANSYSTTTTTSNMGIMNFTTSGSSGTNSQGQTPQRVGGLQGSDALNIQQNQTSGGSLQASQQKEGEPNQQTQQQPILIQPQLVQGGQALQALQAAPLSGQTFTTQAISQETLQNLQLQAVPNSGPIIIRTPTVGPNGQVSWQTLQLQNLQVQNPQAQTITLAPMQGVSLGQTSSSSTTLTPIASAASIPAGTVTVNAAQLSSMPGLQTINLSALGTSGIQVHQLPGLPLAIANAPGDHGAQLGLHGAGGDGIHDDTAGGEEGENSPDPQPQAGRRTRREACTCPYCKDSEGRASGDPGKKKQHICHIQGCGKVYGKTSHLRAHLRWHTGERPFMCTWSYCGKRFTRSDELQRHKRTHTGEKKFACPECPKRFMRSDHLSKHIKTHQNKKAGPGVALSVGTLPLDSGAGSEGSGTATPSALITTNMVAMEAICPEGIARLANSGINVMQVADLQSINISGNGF
Described as above. Type of data set: binding, rabbit. The note with it: for competition with PAS1B for Sp1 binding: in vitro translated PAS1B, peptide 10, 100 and 1000 pmol; for Sp1 binding: translated in rabbit reticulocyte lysate. How it is done: as §1, §2

A further data set relates to U-2 OS cells. As to the kind of experiment: immunofluorescent staining of γ-H2AX foci (DNA DSBs). Type of data set: cell-based. The procedure: To ascertain the functional relevance of NBS1 repression by hypoxia, the extent of DNA damage was assessed by immunofluorescent staining of γ-H2AX foci, a most sensitive method for quantifying DNA DSBs (Rogakou et al, 1998, 1999). […] Furthermore, results also show strikingly colocalized foci of γ-H2AX and 53BP1, the latter of which is known to interact with various DNA repair proteins including γ-H2AX in response to DSBs (Schultz et al, 2000). Thus, hypoxic cells experience DNA DSBs, presumably resulting from the NBS1 repression.
Immunofluorescence staining was performed essentially as described previously (Rogakou et al, 1999) with mouse anti-γ-H2AX antibody (Upstate) and rabbit anti-53BP1 (Novus Biologicals). Secondary antibodies were anti-mouse Alexa-546 and anti-rabbit Alexa-488 (Molecular Probes). Samples were mounted in antifade media, and were examined by fluorescent and laser-scanning confocal microscopy with a Nikon PCM 2000.

Data set [3] relates to NBS1. Kind of data set: NBS1 protein levels by immunoblot in U-2 OS cells expressing PAS-B variants. The data set is classed as cell-based. The note with it: forced expression in U-2 OS cells. The procedure: (§3) Immunoprecipitations and Western blot was performed essentially as described previously (Huang et al., 1998; Koshiji et al., 2005). In vitro translation and immunoprecipitations are described as before (Gu et al., 2001; Koshiji et al., 2005). The wheat germ extract system was purchased from Promega. λ protein phosphatase (New England Biolabs) and resveratrol (Sigma) with indicated concentrations were added to the in vitro translated products before immunoprecipitations.
U-2 OS cells were transfected with the Nucleofector system (Amaxa). Briefly, 1×10^6 cells were suspended in 100 μl pre-warmed Nucleofector Solution Kit V containing 2 μg plasmids. After electroporation the cells were transferred immediately into pre-warmed complete McCoy's 5A medium and seeded in 6-well plates. Cells were harvested 48 h after transfection.
(Immunoblotting shows a protein as a band on a membrane.)

Data set [4] concerns Sp1. Kind of data set: anti-Sp1 immunoprecipitation followed by immunoblotting in HeLa cells. Type of data set: cell-based. The note with it: expressed ectopically in HeLa cells. How it is done: as §3
For data set [5], the system named is NBS1. As to the kind of experiment: NBS1 mRNA levels by real-time PCR in HCT116 cells. The data set is classed as cell-based, human. The note with it: adenovirus infection 16 h. How it is done: HCT116 TP53^+/+, HCT116 TP53^−/− cells (Koshiji et al., 2004), and U-2 OS were grown in McCoy's 5A medium (Invitrogen), and HeLa cells in DMEM. For hypoxic treatment, cells were incubated in a hypoxic chamber (Innova CO-48, New Brunswick Scientific) maintaining 1% O2 and 5% CO2. Recombinant adenovirus generation and infection were as previously described (Koshiji et al., 2004).
Total RNA extraction, reverse transcription, and quantitative PCR were performed essentially as described previously (Koshiji et al., 2005). Taqman Gene Expression Assay kits for NBS1, MRE11A, RAD50, MSH2, and ACTB were purchased from Applied Biosystems. All experiments were repeated three times in triplicates, and representative results were presented as means±standard errors.
A general note: Quantitative PCR measures a nucleic acid by following its amplification.

The target of data set [6] is synthetic peptide including HIF-2α residues 314-331.

For “PAS1B T327P: PAS1B with Thr-327 replaced by the HIF-2α residue proline”, in the data set with Sp1 [1], the Sp1 binding entry is “regained binding”. For the same molecule, in the data set with Sp1 [2], the “competition with PAS1B for Sp1 binding” value is given as “neither PAS2B nor the PAS1B T327P mutant was able to compete” and the Sp1 binding result is reported as “lost Sp1 binding”.

Consider “PAS2B T324V: PAS2B with Thr-324 mutated to valine”, for which, in the data set on U-2 OS cells (U-2 OS cells transiently expressing PAS-B variants), the “γ-H2AX foci colocalized with 53BP1” value is listed as “significantly increased”. Also, the NBS1 protein levels entry with NBS1 [3] was “gained its ability to inhibit NBS1 protein levels”. Besides, the Sp1 binding entry with Sp1 [2] is “established binding”.

“PAS1B T322E: PAS1B mutant mimicking phosphorylation at Thr-322 with glutamic acid substitution”: the NBS1 protein levels result with NBS1 [3] is “failed to do so”. For the same molecule, the Sp1 binding entry with Sp1 [2] was “lost Sp1 binding”.

In the case of “HIF-2α: full-length HIF-2α, a close member of the HIF-α family”, the figures for the Sp1 binding result in the data set with Sp1 [4] and in the data set with Sp1 [2] were “no Sp1 binding was detected” and “neither full-length HIF-2α nor PAS2B exhibited Sp1-binding activity”, respectively. For the same molecule, the NBS1 repression result with NBS1 [5] is reported as “no inhibition”.

`CC(=O)N(O)CCCCCNC(=O)CCC(=O)N(O)CCCCCNC(=O)CCC(=O)N(O)CCCCCN` [Desferrioxamine, reference compound]: in the data set on U-2 OS cells (U-2 OS cells treated with desferrioxamine, versus hypoxia), the “intensified γ-H2AX foci” value is given as “much greater increase”. Moreover, the “γ-H2AX foci per cell, Mean” value with U-2 OS cells (U-2 OS cells, desferrioxamine conditions for 72 h) was determined as 40.62 foci per cell.

Consider PAS1B T322V: PAS1B with T322V mutation, for which the Sp1 binding result with Sp1 [2] was “maintained PAS1B activity”.

Turning to PAS2B: HIF-2α PAS-B (codons 195-331), the Sp1 binding result with Sp1 [4] was “no Sp1 binding was detected”; in the data set with Sp1 [1], “regained binding”; with Sp1 [2], “neither full-length HIF-2α nor PAS2B exhibited Sp1-binding activity”. Moreover, the “competition with PAS1B for Sp1 binding” value with Sp1 [2] is reported as “neither PAS2B nor the PAS1B T327P mutant was able to compete”.

B1: endogenous PKD1 immunoprecipitated from 786-O cells (protein)
chain: MSAPPVLRPPSPLLPVAAAAAAAAAALVPGSGPGPAPFLAPVAAPVGGISFHLQIGLSREPVLLLQDSSGDYSLAHVREMACSIVDQKFPECGFYGMYDKILLFRHDPTSENILQLVKAASDIQEGDLIEVVLSASATFEDFQIRPHALFVHSYRAPAFCDHCGEMLWGLVRQGLKCEGCGLNYHKRCAFKIPNNCSGVRRRRLSNVSLTGVSTIRTSSAELSTSAPDEPLLQKSPSESFIGREKRSNSQSYIGRPIHLDKILMSKVKVPHTFVIHSYTRPTVCQYCKKLLKGLFRQGLQCKDCRFNCHKRCAPKVPNNCLGEVTINGDLLSPGAESDVVMEEGSDDNDSERNSGLMDDMEEAMVQDAEMAMAECQNDSGEMQDPDPDHEDANRTISPSTSNNIPLMRVVQSVKHTKRKSSTVMKEGWMVHYTSKDTLRKRHYWRLDSKCITLFQNDTGSRYYKEIPLSEILSLEPVKTSALIPNGANPHCFEITTANVVYYVGENVVNPSSPSPNNSVLTSGVGADVARMWEIAIQHALMPVIPKGSSVGTGTNLHRDISVSISVSNCQIQENVDISTVYQIFPDEVLGSGQFGIVYGGKHRKTGRDVAIKIIDKLRFPTKQESQLRNEVAILQNLHHPGVVNLECMFETPERVFVVMEKLHGDMLEMILSSEKGRLPEHITKFLITQILVALRHLHFKNIVHCDLKPENVLLASADPFPQVKLCDFGFARIIGEKSFRRSVVGTPAYLAPEVLRNKGYNRSLDMWSVGVIIYVSLSGTFPFNEDEDIHDQIQNAAFMYPPNPWKEISHEAIDLINNLLQVKMRKRYSVDKTLSHPWLQDYQTWLDLRELECKIGERYITHESDDLRWEKYAGEQGLQYPTHLINPSASHSDTPETEETEMKALGERVSIL
As to B1, the “in vitro kinase assay with immunoprecipitated endogenous PKD1 and synthetic peptides” value in data set [6] is recorded as “endogenous PKD1 immunoprecipitated from 786-O cells specifically phosphorylated HIF-2α at Thr-324”.
